Test results from ChEMBL document CHEMBL1134244, “Design and synthesis of a new sialyl Lewis X mimetic: how selective are the selectin receptors?” (Bioorg Med Chem Lett, 2001).

Columns and labels:
P-selectin = target: T1, P-selectin (Homo sapiens, UniProt P16109); test: Concentration required to inhibit the interaction of Selectin P and HL-60 cells; format: cell-based
T1 sequence (P16109 whole entry): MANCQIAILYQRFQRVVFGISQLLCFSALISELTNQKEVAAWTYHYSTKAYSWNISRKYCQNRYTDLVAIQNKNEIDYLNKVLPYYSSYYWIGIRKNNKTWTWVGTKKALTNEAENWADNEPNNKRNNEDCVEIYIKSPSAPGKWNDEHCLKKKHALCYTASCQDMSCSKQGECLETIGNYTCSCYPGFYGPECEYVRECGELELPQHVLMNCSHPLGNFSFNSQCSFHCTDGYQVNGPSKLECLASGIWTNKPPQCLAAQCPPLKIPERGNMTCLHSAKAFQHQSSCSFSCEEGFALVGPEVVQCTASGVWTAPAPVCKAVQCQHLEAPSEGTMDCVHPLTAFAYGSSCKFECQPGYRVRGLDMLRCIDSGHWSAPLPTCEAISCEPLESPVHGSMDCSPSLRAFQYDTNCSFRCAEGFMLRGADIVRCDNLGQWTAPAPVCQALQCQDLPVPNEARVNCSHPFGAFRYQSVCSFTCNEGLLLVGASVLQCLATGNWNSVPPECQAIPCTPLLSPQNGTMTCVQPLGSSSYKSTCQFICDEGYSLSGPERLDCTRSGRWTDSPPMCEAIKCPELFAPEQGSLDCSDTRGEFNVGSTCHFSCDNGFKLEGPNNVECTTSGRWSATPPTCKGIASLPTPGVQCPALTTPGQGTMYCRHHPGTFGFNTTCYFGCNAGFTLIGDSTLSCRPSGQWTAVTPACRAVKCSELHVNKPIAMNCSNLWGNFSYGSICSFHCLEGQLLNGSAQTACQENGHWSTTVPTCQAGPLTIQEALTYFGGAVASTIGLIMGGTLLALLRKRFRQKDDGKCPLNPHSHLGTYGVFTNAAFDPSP

E-selectin = target: T2, E-selectin (Homo sapiens, UniProt P16581); test: Concentration required to inhibit the interaction of Selectin E and HL-60 cells; format: cell-based
T2 sequence (P16581 whole entry): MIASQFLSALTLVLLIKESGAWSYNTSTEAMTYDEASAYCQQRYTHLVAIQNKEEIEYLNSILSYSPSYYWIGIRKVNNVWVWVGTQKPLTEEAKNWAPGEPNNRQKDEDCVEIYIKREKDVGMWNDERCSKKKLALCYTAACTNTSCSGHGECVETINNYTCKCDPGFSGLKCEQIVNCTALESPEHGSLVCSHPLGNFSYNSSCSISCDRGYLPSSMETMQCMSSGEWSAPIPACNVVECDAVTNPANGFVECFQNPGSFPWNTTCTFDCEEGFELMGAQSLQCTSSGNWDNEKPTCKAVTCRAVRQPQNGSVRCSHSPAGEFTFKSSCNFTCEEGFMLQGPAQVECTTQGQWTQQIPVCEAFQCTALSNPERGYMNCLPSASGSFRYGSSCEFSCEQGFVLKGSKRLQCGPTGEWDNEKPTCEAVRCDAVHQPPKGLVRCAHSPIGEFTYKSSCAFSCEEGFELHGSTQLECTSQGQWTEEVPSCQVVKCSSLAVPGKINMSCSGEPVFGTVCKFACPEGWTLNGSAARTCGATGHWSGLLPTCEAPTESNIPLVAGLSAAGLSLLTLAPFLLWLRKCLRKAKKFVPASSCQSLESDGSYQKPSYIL

SMILES | IC50 (P-selectin) [mM] | IC50 (E-selectin) [mM]
CC(=O)N[C@H]1[C@H]([C@H](O)[C@H](O)CO)O[C@@](O[C@H]2[C@@H](O)[C@@H](CO)O[C@@H](O[C@@H]([C@H](O[C@@H]3O[C@@H](C)[C@@H](O)[C@@H](O)[C@@H]3O)[C@H](C=O)NC(C)=O)[C@H](O)CO)[C@@H]2O)(C(=O)O)C[C@@H]1O (single isomer, unassigned; enantiomer A) [SIALYL LEWIS X] | 5 | 7
CC(=O)N[C@H]1[C@H]([C@H](O)[C@H](O)CO)O[C@@](O[C@H]2[C@@H](O)[C@@H](CO)O[C@@H](O[C@@H]([C@H](O[C@@H]3O[C@@H](C)[C@@H](O)[C@@H](O)[C@@H]3O)[C@H](C=O)NC(C)=O)[C@H](O)CO)[C@@H]2O)(C(=O)O)C[C@@H]1O (single isomer, unassigned; enantiomer B) [SIALYL LEWIS X] | 4.5 | 5
CC(=O)N[C@H]1[C@H]([C@H](O)[C@H](O)CO)O[C@@](O[C@H]2[C@@H](O)[C@@H](CO)O[C@@H](O[C@@H]([C@H](O[C@@H]3O[C@@H](C)[C@@H](O)[C@@H](O)[C@@H]3O)[C@H](C=O)NC(C)=O)[C@H](O)CO)[C@@H]2O)(C(=O)O)C[C@@H]1O [SIALYL LEWIS X] | 5.5 | 5
